Assay results taken from PubChem BioAssay (NCI).
Where “and” joins values, the source holds several entries; their conditions need not be identical. Equal entries are not always repeated.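 Cultured in 96-well plates, cells were exposed to test compound for 48 hours across five concentrations. GI50 is the concentration that inhibits growth by half. TGI: total growth inhibition.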

Assays:
Test in all cases: inhibition of tumour cell growth, NCI panel, 48 h
SK-OV-3 ovarian = test system: SK-OV-3 ovarian
SNB-19 CNS = test system: SNB-19 CNS
MOLT-4 leukemia = test system: MOLT-4 leukemia
SK-MEL-2 melanoma = test system: SK-MEL-2 melanoma
ACHN renal = test system: ACHN renal
U251 CNS = test system: U251 CNS
SN12C renal = test system: SN12C renal
OVCAR-5 ovarian = test system: OVCAR-5 ovarian
COLO 205 colon = test system: COLO 205 colon
A498 renal = test system: A498 renal

Compound	TGI (SK-OV-3 ovarian) [µM]	TGI (SNB-19 CNS)	TGI (MOLT-4 leukemia)	TGI (SK-MEL-2 melanoma) [µM]	TGI (ACHN renal)	TGI (U251 CNS)	TGI (SN12C renal)	TGI (OVCAR-5 ovarian)	TGI (COLO 205 colon)	GI50 (A498 renal)	GI50 (SNB-19 CNS)	GI50 (MOLT-4 leukemia)	GI50 (ACHN renal)	GI50 (U251 CNS)	GI50 (SN12C renal)	GI50 (OVCAR-5 ovarian) [µM]	GI50 (SK-OV-3 ovarian) [µM]	GI50 (SK-MEL-2 melanoma) [µM]	GI50 (COLO 205 colon) [µM]	TGI (A498 renal) [µM]
COC(=O)c1c(C(=O)OC)c(C(=O)OC)c(C(=O)OC)c1C(=O)OC	> 100	> 100 µM	> 100 µM	> 100	> 100 µM	> 100 µM	> 100 µM	> 100 µM	> 100 µM											
CCN(CC)CCNc1ccc(CO)c2sc3ccccc3c(=O)c12		29.1 µM [middle of 4 runs]	14.1 µM [middle of 4 runs]		7.94 µM and 24.5 µM and 15.9 µM	23.7 µM [middle of 4 runs]	20 µM [middle of 4 runs]	25.1 µM [middle of 4 runs]	3 µM and 13.9 µM and 18 µM	1.26 µM and 6.98 µM and 3.61 µM	3.54 µM and 13.3 µM and 14.1 µM	3.14 µM and 3.32 µM	2.35 µM and 6.73 µM and 2.58 µM	3.97 µM and 12.6 µM	6.55 µM [middle of 4 runs]	5.05				
CN1NC(c2ccccc2)=C(C#N)C(=O)CC1c1ccccc1Cl (configuration not stated)	> 100	> 100 µM	> 100 µM	> 100	> 100 µM	> 100 µM	> 100 µM	> 100 µM	> 100 µM											
O=c1c2ccccc2c(C=NCCNCCO)c2oc3ccccc3n12	15.9	19.6 µM	11.7 µM	50.6	14.9 µM	19.5 µM	18.3 µM	29.1 µM	15.8 µM		6.33 µM	1.73 µM	3.54 µM	6.24 µM	4.34 µM	15.7	3.58	21.3	3.27	
COc1cc2c(c(OC)c1OC)C(=O)c1c-2n(CCCN)c(=O)c2cc([N+](=O)[O-])ccc12	4	5.15 µM	19.1 µM	11.6			13.6 µM	3.04 µM	6.3 µM	1.41 µM	1.5 µM	8.08 µM			5.11 µM	1.61	1.95	5.45	1.22	2.99
CC(C)c1cccc2sc(NC(=O)C(=O)CC(=O)c3ccc(F)cc3)nc12	> 100	> 100 µM		> 100	> 100 µM	> 100 µM	> 100 µM	> 100 µM	> 100 µM											> 100
O=C1c2ccccc2C(=O)c2c1c(NCCNCCO)c1cc[nH]c1c2NCCNCCO	13.6	12.9 µM			> 100 µM	19.7 µM	2.67 µM	> 31.3 µM	> 33.3 µM	8.09 µM	1.26 µM	1.28 µM	9.96 µM	0.739 µM	0.354 µM	3.96	2.85		2.48	32.9
COC(=O)/C1=C/C2CC(/C=C(/c3ccccc3)C(=O)O1)C2	72.9	> 100 µM	62 µM		96.5 µM	49.3 µM	64.3 µM		41.7 µM											
CC(=O)OC1CC(C)c2c1ncnc2N1CCN(C(=O)OC(C)(C)C)CC1 (configuration not stated)	> 100	> 100 µM	> 100 µM	93.1	> 100 µM		> 100 µM	> 100 µM	> 100 µM	37.8 µM	78.5 µM	37.2 µM	80.7 µM		79.4 µM	99.2	53.7	35.5	38.5	> 100
CP(=O)(CCSc1ccccc1)c1ccccc1 (configuration not stated)	> 100	> 100 µM	> 100 µM		> 100 µM	> 100 µM	> 100 µM		> 100 µM											> 100
[O-]c1c(-c2ccccc2)[se]c(-c2ccccc2)[n+]1-c1ccccc1	39.2	20.2 µM	92.9 µM	19.8			17.9 µM		31.3 µM											26.7
CCOc1ccc2c(-c3ccnc(Nc4cccc(C(F)(F)F)c4)n3)cnn2n1	18.9	> 25 µM	> 25 µM		> 25 µM	> 22.5 µM	> 25 µM	> 25 µM	> 25 µM	8.2 µM	13.6 µM	> 25 µM	16.3 µM	6.43 µM	15.1 µM	> 15.9	8.11		> 25	> 25
CC(=O)c1ccc(NCn2nc(-c3ccccc3O)oc2=S)cc1		> 100 µM	> 100 µM	> 100	71.9 µM	> 100 µM	64.9 µM	> 100 µM	> 100 µM		> 100 µM	0.88 µM	29.6 µM	50.8 µM	27 µM	> 100		> 100	43.4	
CC1=C(CC/C(C)=C/CCC2(C)CCC([C@H](C)C(=O)O)OO2)C(C)(C)CCC1 (some centres not stated) (tested in a mixture with another compound)		> 100 µM		> 100	> 100 µM	> 100 µM	> 100 µM	> 100 µM	> 100 µM											
O=C(/C=C/c1ccccc1)c1ccc(O)c(CN2CCN(c3cc4c(cc3F)c(=O)c(C(=O)O)cn4C3CC3)CC2)c1	> 100	> 100 µM		> 100	13.9 µM	> 100 µM		> 100 µM	74.5 µM	0.941 µM	0.984 µM		1.9 µM	0.389 µM		3.91	2.77	3.3	3.86	4.93
CC(=O)C1C(=O)C(=O)N(c2ccc(Cl)cc2C)C1=O (configuration not stated)		> 100 µM	> 100 µM	> 100	> 100 µM	> 100 µM	> 100 µM	> 100 µM	> 100 µM											> 100
COc1ccc2c3c([nH]c2c1[N+](=O)[O-])C(C)N(C(=O)/C=C/c1ccccc1)CC3 (configuration not stated)		> 100 µM	> 100 µM	> 100	> 100 µM	> 100 µM	> 100 µM	> 100 µM	> 100 µM											8.31
